Experimental data taken from US5861388A, “Steroid inhibitors of estrone sulfatase and associated pharmaceutical compositions and methods of use” (SRI International, priority 1997, dated 1999).

Assays:
estrone sulfatase = target: T1, estrone sulfatase (Homo sapiens, UniProt P08842); test: Estrone sulfatase assay with intact MCF-7 cells; type: cell-based; settings: concentration giving 50 % inhibition, 24 h, 3H-estrone sulfate substrate
T1 construct: Estrone Sulfatase Assay with Intact Cells; host or cells: MCF-7
T1 sequence (P08842 22-583): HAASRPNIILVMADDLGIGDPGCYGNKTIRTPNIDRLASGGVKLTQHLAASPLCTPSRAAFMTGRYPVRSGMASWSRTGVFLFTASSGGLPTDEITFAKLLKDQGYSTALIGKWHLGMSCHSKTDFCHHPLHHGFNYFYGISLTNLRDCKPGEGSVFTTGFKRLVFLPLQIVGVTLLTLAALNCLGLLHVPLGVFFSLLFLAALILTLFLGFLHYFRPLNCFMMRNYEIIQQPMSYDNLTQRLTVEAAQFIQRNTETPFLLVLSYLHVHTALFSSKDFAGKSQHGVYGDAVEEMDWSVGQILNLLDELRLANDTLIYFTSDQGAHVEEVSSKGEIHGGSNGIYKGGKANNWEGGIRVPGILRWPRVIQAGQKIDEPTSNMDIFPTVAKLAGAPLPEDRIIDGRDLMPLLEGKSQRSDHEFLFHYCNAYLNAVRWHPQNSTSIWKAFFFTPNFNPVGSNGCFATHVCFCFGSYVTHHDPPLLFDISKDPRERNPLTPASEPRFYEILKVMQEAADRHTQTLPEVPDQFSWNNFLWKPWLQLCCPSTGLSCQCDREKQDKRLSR
Excerpt: Test for the Effects of Inhibitors on Estrone Sulfatase Activity in MCF-7 Cells:
Reagents: MCF-7 human breast cancer cells were supplied by the American Type Culture Collection, Rockville, Md. Eagle's minimum essential medium (MEM) and fetal calf serum (FCS) were purchased from Sigma Chemical Company, St. Louis, Mo. [4-^14 C] Estrone, [6,7-^3 H] estradiol and [6,7-^3 H(N)] estrone sulfate were obtained from New England Nuclear Research Products, Boston, Mass.
Estrone Sulfatase Assay with Intact Cells. The procedure of Duncan et al., Cancer Res. 53:298-303 (1993) was followed. MCF-7 cells were seeded in 60×15 mm culture dishes at 1×10^5 cells/dish and maintained in 4.0 mL of MEM containing 2 mM of glutamine and 5% of FCS. The cells were incubated at 37° C. in a 5% CO2 /95% air atmosphere and 100% humidity, with the medium changed every third day. When the cells reach 80% confluency, the intact monolayers were washed once with Earl's balanced salt solution and incubated in 4.0 mL of serum-free MEM containing the substrate (^3 H-estrone sulfate, 7 pmol, 9×10^5 dpm) and inhibitor dissolved in ethanol or ethanol alone. The final ethanol concentration was always be below 1%. The incubation continued for 24 h. 2.0 mL of medium was transferred into separate tubes containing 7×10^3 dpm of ^14 C-estrone. The mixture was vortexed vigorously for 60 s with 5 mL of toluene. After phase separation, 2.0 mL of the organic phase was transferred into a counting vial for scintillation counting. The amount of estrone sulfate hydrolyzed was calculated on the basis of the ^3 H counts obtained, with the added ^14 C-estrone used to correct for recovery through the extraction procedure.
The cells remaining in each culture dish were washed with saline once and then scraped with 1.0 mL of 0.5N NaOH into 10×75 mm tubes. The cell pellets in each tube were incubated at 50° C. for 20 min. to ensure that digestion was complete and that all proteins became soluble. An aliquot was then taken for protein determination by Lowry's method (Lowry et al., J. Biol. Chem. 193:265-275 (1951)).
The amount of estrone sulfate hydrolyzed with the inhibitor relative to that without the inhibitor was evaluated to give the percentage of inhibition.

[1] = test system: MCF-7 human breast carcinoma xenografts; test: Tumor growth inhibition assay, MCF-7 human breast carcinoma xenografts in athymic mice; type: in vivo, human MCF-7 xenografts in female BALB/c athymic mice; settings: i.p. 1.0 mg/mouse/day for 5 weeks, mean ± S.E.
Excerpt: In Vivo Efficacy Studies Using MCF-7 Cells in Nude Mice: For in vivo evaluation, human xenografts were used in nude (athymic) mice, in the context of a solid tumor assay. MCF-7 human breast carcinomas in nude mice were used as the model for evaluating the estrone sulfatase inhibitors. The protocol followed was essentially that of Yue et al., J. Steroid Biochem. 44:671-673 (1993). Because MCF-7 cells are known to require supplementation with estradiol to sustain progressive growth in athymic nude mice (Soule et al., Cancer Lett. 10:177-189 (1980)), estrone sulfate was used for supplemental estrogen in the model studies. The enzyme inhibitors were administered by intravenous injection, oral gavage, and intraperitoneal administration, and comparative efficacy of the various compounds were evaluated using these different routes. Female BALB/c athymic mice 4-6 weeks of age were supplied by Charles River Breeding Laboratories, Boston, Mass. MCF-7 cells for the in vitro cell growth inhibition assay were obtained from the American Type Culture Collection, Rockville, Md., and cultured under the same conditions as described above for the sulfatase assay. Tumor Growth Inhibition Assay (see […] et al. (1990), supra, Yue et al., supra, and Noel et al., Biochem. Pharmacol. 43:1263-1267 (1992): The athymic mice were housed five per cage in controlled conditions of light and humidity and received food and water ad libitum throughout the entire experiment. The mice were quarantined for three working days before use in experiments. Prior to the initiation of the antitumor experiments, the mice were housed for seven days to familiarize them with the experimental environment. Temperature was maintained at 72±5° F., with relative humidity at 35-70% and a 12-h light/dark cycle. The mice were fed certified Purina rodent chow and drinking water ad libitum. The source water was recirculated, deionized, UV-treated, and filtered (5-μm filter). At the beginning of the experiment, all but five of the mice underwent oophorectomies to eliminate the endogenous level of estrogen. After all animals recovered from surgery, all mice in the study received 5 μmol of estrone sulfate daily via gavage or subcutaneous (sc) injection. The dosing of estrone sulfate was carried out throughout the entire experiment. Seven days after the animals began treatment with estrone sulfate, each mouse was be injected sc twice (once in each flank) with 2.5×10^6 MCF-7 cells suspended in 0.1 mL of serum-free tissue culture medium to induce tumor growth. The growth rate was determined by measuring the tumors with calipers weekly. Tumor volumes were calculated according to the formula 4/3πr1^2,r2, where r1 and r2 represent the tumor radii. When the average tumor volume per mouse reached approximately 200 mm^3, animals began to receive various doses of estrone sulfatase inhibitors dissolved in 0.1 mL of phosphate buffered saline (PBS). Dosing was by oral gavage, intravenous injection, and intraperitoneal injection; daily dosing with estrone sulfatase inhibitors was continued throughout the remainder of the experiment. The estrone sulfatase inhibitors not soluble in aqueous solutions were dissolved in EtOH first and diluted with PBS to obtain the appropriate concentrations of inhibitor but keeping the concentration of EtOH below 1%. For each test compound, the mice were divided into several groups with five animals in each group. These groups were as follows: intact control group receiving PBS alone; oophorectomized control group receiving PBS alone; and oophorectomized treatment groups receiving various doses of estrone sulfatase inhibitors. […] The change in tumor volume in the treatment groups relative to that in the oophorectomized control group gave the percent inhibition of a given inhibitor.

SMILES | IC50 (estrone sulfatase) | other results
CC(=O)O[C@H]1CC[C@H]2[C@@H]3CCc4cc5c(cc4[C@H]3CC[C@]12C)C=NS(=O)(=O)O5 [Compound 4, 17β-acetoxyestra-1,3,5(10)-trieno-[3,2,e]-1',2',3'-oxathiazine-2',2'-dioxide] | 12 nM | –
C[C@]12CC[C@@H]3c4cc5c(cc4CC[C@H]3[C@@H]1CCC2=O)OS(=O)(=O)N=C5 [Compound 6, Estra-1,3,5(10)-trien-17-ono-[3,2,e]-1',2',3'-oxathiazine-2',2'-dioxide] | 9.3 nM | Tumor Volume, week 0 ([1]; week 0, control 96.5 ± 5.2): 133.6 ± 15.9 mm^3; Tumor Volume, week 1 ([1]; week 1, control 184.1 ± 26.3): 185.8 ± 16.5 mm^3; Tumor Volume, week 2 ([1]; week 2, control 191.2 ± 36.1): 191.3 ± 25.1 mm^3; Tumor Volume, week 3 ([1]; week 3, control 232.9 ± 46.4): 181.8 ± 27.8 mm^3; Tumor Volume, week 4 ([1]; week 4, control 299.5 ± 54.3): 234.0 ± 50.7 mm^3; Tumor Volume, week 5 ([1]; week 5, control 349.0 ± 46.2): 285.8 ± 47.7 mm^3
C[C@]12CC[C@@H]3c4cc5c(cc4CC[C@H]3[C@@H]1CC[C@@H]2O)OS(=O)(=O)N=C5 [Compound 10, 17β-hydroxyestra-1,3,5(10)-trieno-[3,2,e]-1',2',3'-oxathiazine-2',2'-dioxide] | 20 nM | –
C[C@]12CC[C@@H]3c4cc5c(cc4CC[C@H]3[C@@H]1CC[C@@H]2O)OS(=O)(=O)NC5 [Compound 11, 17β-Hydroxyestra-1,3,5(10)-trieno-[3,2,e]-3',4'-dihydro-1',2',3'-oxathiazine-2',2'-dioxide] | 820 nM | –
C[C@]12CC[C@@H]3c4ccc5c(c4CC[C@H]3[C@@H]1CCC2=O)C=NS(=O)(=O)O5 [Compound 13, estra-1,3,5(10)-trien-17-ono-[3,4,e]-1',2',3'-oxathiazine-2',2'-dioxide] | 44 nM | –
C[C@]12CC[C@@H]3c4ccc5c(c4CC[C@H]3[C@@H]1CC[C@@H]2O)CNS(=O)(=O)O5 [Compound 14, 17β-Hydroxyestra-1,3,5(10)-trieno-[3,4,e]-3',4'-dihydro-1',2',3'-oxathiazine-2',2'-dioxide] | 15000 nM | –
CC[C@H]1CC[C@H]2[C@@H]3CCc4cc5c(cc4[C@H]3CC[C@]12C)C=NS(=O)(=O)O5 [Compound 17, 19-norpregna-1,3,5(10)-trieno-[3,2,e]-1',2',3'-oxathiazine-2',2'-dioxide] | 50 nM | –
C=C1CC[C@H]2[C@@H]3CCc4cc5c(cc4[C@H]3CC[C@]12C)C=NS(=O)(=O)O5 [Compound 30, 17-methyleneestra-1,3,5(10)-trieno-[3,2,e]-1',2',3'-oxathiazine-2',2'-dioxide] | 72 nM | –
C/C=C1/CC[C@H]2[C@@H]3CCc4cc5c(cc4[C@H]3CC[C@]12C)C=NS(=O)(=O)O5 [Compound 31, [17(20)Z]-norpregna-1,3,5(10),17(20)-tetraeno-[3,2,e]-1',2',3'-oxathiazine-2',2'-dioxide] | 63 nM | –
CC/C=C1/CC[C@H]2[C@@H]3CCc4cc5c(cc4[C@H]3CC[C@]12C)C=NS(=O)(=O)O5 [Compound 32, [17(20)Z]-Propylideneestra-1,3,5(10)-trieno-[3,2,e]-1',2',3'-oxathiazine-2',2'-dioxide] | 58 nM | –
CCC/C=C1/CC[C@H]2[C@@H]3CCc4cc5c(cc4[C@H]3CC[C@]12C)C=NS(=O)(=O)O5 [Compound 33, [17(20)Z]-19,21-dinorchola-1,3,5(10),17(20)-tetraeno-[3,2,e]-1',2',3'-oxathiazine-2',2'-dioxide] | 720 nM | –
C[C@H]1CC[C@H]2[C@@H]3CCc4cc5c(cc4[C@H]3CC[C@]12C)C=NS(=O)(=O)O5 [Compound 34, 17β-methylestra-1,3,5(10)-trieno-[3,2,e]-1',2',3'-oxathiazine-2',2'-dioxide] | 45 nM | –
CCC[C@H]1CC[C@H]2[C@@H]3CCc4cc5c(cc4[C@H]3CC[C@]12C)C=NS(=O)(=O)O5 [Compound 35, 17β-Propylestra-1,3,5(10)-trieno-[3,2,e]-1',2',3'-oxathiazine-2',2'-dioxide] | 120 nM | –
CCCC[C@H]1CC[C@H]2[C@@H]3CCc4cc5c(cc4[C@H]3CC[C@]12C)C=NS(=O)(=O)O5 [Compound 36, 17β-19,21-dinorchola-1,3,5(10)-trieno-[3,2,e]-1',2',3'-oxathiazine-2',2'-dioxide] | 590 nM | –
C=C=C1CC[C@H]2[C@@H]3CCc4cc5c(cc4[C@H]3CC[C@]12C)C=NS(=O)(=O)O5 [Compound 40, 19-Norpregna-1,3,5(10),17(20),20-pentaeno-[3,2,e]-1',2',3'-oxathiazine-2',2'-dioxide] | 74 nM | –
CO[C@H]1CC[C@H]2[C@@H]3CCc4cc5c(cc4[C@H]3CC[C@]12C)C=NS(=O)(=O)O5 [Compound 43, 17β-methoxyestra-1,3,5(10)-trieno-[3,2,e]-1',2',3'-oxathiazine-2',2'-dioxide] | 50 nM | –
